Data published in PMC12024193, “Engineered Lysin-Derived Peptide as a Potent Antimicrobial for Acne Vulgaris” (Antibiotics, 2025).

Tests used:
[1] = test system: S. aureus strain USA300; experiment: One-hour killing assay with or without retinoic acid; assay type: cell-based, Staphylococcus aureus; conditions: MRSA USA300, 1 h, Tris pH 7.2, 37 °C, triplicate
Description: (§1) Unless stated otherwise, the standard conditions for killing assays involved statically treating exponential phase bacteria at approximately 5 × 10^5 CFU/mL with a lysin-derived peptide at 25 μg/mL in a 96-well microtiter plate under aerobic (S. aureus) or anaerobic conditions (C. acnes and S. aureus) in 20 mM Tris (Fisher Scientific), pH 7.2, for 1 h at 37 °C. For dose–response killing assays, peptide concentrations ranging from 1 up to 125 μg/mL were tested.
For measuring the effect of retinoid on peptide bactericidal activity, S. aureus strain USA300 at 10^6 CFU/mL was treated with or without P156 at 25 μg/mL in buffer supplemented with all-trans-retinoic acid (Sigma-Aldrich) at 0.01–0.1% (w/v).
Each killing assay comprised an untreated control (bacteria absent peptide) for every condition tested. After 1 h, 100 μL directly from the sample, as well as 5 μL of each dilution from a 10-fold serial dilution, were plated on either TSB agar (for S. aureus killing assays using aerobic conditions), rTSB agar (for S. aureus killing assays using anaerobic conditions), or rTSB agar with 2% glycerol (for C. acnes killing assays) in order to quantitate bacterial viability. The LOD for each experiment was 10 CFU/mL, with one exception. […] For statistical analysis, p-values were calculated using an unpaired t-test due to each lysin or peptide dose being compared individually to the untreated group. […]

[2] = test system: C. acnes; experiment: One-hour killing assay against C. acnes (dose-response; temperature, pH and NaCl variations); assay type: cell-based, Cutibacterium acnes
Description: (§2) Bacterial strains used in this study are outlined in Table 2 and were stored at −80 °C. C. acnes strains were grown in a BACTRON900 anaerobic chamber (Sheldon Manufacturing Inc., Cornelius, OR, USA) at 37 °C to exponential phase in reduced Trypticase Soy Broth (rTSB, BD Biosciences, Franklin Lakes, NJ, USA) supplemented with 2% (v/v) glycerol. S. aureus strains were grown either aerobically or anaerobically at 37 °C to the exponential phase in TSB (aerobic growth) or rTSB (anaerobic growth).
as §1
To evaluate the effect salt has on the antibacterial activity of the peptide, C. acnes strain ATCC 6919 was treated with P156 in buffer supplemented with 0-500 mM NaCl. The bactericidal potency of P156 in a broad pH range was assayed by treating C. acnes strain ATCC 6919 with the peptide in either 20 mM 2-(N-morpholino) ethanesulfonic acid (MES, pH 5.5–6.5; Fisher Scientific), sodium phosphate buffer (NaPO4, pH 6.5–7.0), or Tris (pH 7.0–8.0).
(§3) Temperature-based killing assays were performed by initially thawing a frozen aliquot of P156, which was then stored at 4 °C for a month. This was the only experiment where an aliquot of a lysin-derived peptide was stored for an extended period of time at a temperature other than −80 °C. Next, C. acnes strain ATCC 6919 was treated with the above-mentioned P156 aliquot in buffer at 15 °C to 40 °C. For these experiments, separate aliquots of both the bacteria at 10^6 CFU/mL and peptide at 50 μg/mL were initially equilibrated to the temperature being assayed for 5 min in 1.7 mL microcentrifuge tubes using an EchoTherm chilling/heating plate (Torrey Pines Scientific, Carlsbad, CA, USA). The bacteria and peptide were then mixed together 1:1 in a microcentrifuge tube, yielding respective final concentrations of 5 × 10^5 CFU/mL and 25 μg/mL, and subsequently incubated in the chilling/heating plate for 1 h.
(§4) Each killing assay comprised an untreated control (bacteria absent peptide) for every condition tested. After 1 h, 100 μL directly from the sample, as well as 5 μL of each dilution from a 10-fold serial dilution, were plated on either TSB agar (for S. aureus killing assays using aerobic conditions), rTSB agar (for S. aureus killing assays using anaerobic conditions), or rTSB agar with 2% glycerol (for C. acnes killing assays) in order to quantitate bacterial viability. The LOD for each experiment was 10 CFU/mL, with one exception. For the dose–response killing assay evaluating the collection of peptides against C. acnes, only the 10-fold serial dilutions from each sample were plated, resulting in an LOD of 200 CFU/mL. Experiments performed under anaerobic conditions used agar plates that were reduced overnight. Additionally, buffers for these particular assays were made fresh the day of the experiment and reduced for 2 h prior to use. Error bars correspond to the standard error of the mean (SEM) of two or three biological replicates. For statistical analysis, p-values were calculated using an unpaired t-test due to each lysin or peptide dose being compared individually to the untreated group. Additionally, to ensure clarity in presenting statistical significance, we used three types of statistical markers to highlight differences: ns, not significant, * p < 0.05 and a <3-log CFU reduction (with respect to the untreated group), ** p < 0.05 and a ≥3-log CFU reduction (with respect to the untreated group).

[3] = test system: S. aureus; experiment: One-hour killing assay against S. aureus (aerobic or anaerobic growth); assay type: cell-based, Staphylococcus aureus; conditions: 20 mM Tris, pH 7.2, 1 h, 37 °C
Description: as §2, §1, §4

[4] = test system: C. acnes strain ATCC 6919; experiment: Time-kill assay; assay type: cell-based, Cutibacterium acnes; conditions: 25 μg/mL, 20 mM Tris, pH 7.2, 37 °C, three biological replicates
Description: Using an EchoTherm chilling/heating plate, separate aliquots of both C. acnes strain ATCC 6919 at 10^6 CFU/mL and P156 at 50 μg/mL in 20 mM Tris, pH 7.2, were equilibrated to 37 °C for 10 min in 1.7 mL microcentrifuge tubes. The bacteria and peptide were then combined 1:1 in a microcentrifuge tube to obtain final concentrations of 5 × 10^5 CFU/mL and 25 μg/mL, respectively. An untreated control (bacteria without peptide) was also included. The samples were incubated for a total of 30 min at 37 °C. At 1, 5, 10, 15, 20, 25 and 30 min, an aliquot was removed. Both 100 μL directly from the sample, as well as 5 μL of each dilution from a 10-fold serial dilution, were plated on rTSB agar supplemented with 2% (v/v) glycerol in order to assess bacterial viability. The LOD was 10 CFU/mL. Error bars correspond to ±SEM of three biological replicates. For statistical analysis, p-values were calculated using an unpaired t-test between the untreated group and the peptide-treated group at each time point. ** p < 0.05 and a ≥3-log CFU reduction (with respect to the untreated group).

[5] = test system: C. acnes strain ATCC 6919; experiment: Storage stability: bactericidal activity after thawing from -80 °C and four weeks at 4 °C; assay type: physicochemical, Cutibacterium acnes; conditions: thawed from -80 °C, stored four weeks at 4 °C; read-out bactericidal activity at 25 μg/mL against C. acnes ATCC 6919
Description: as §3

[6] = 25 μg/mL, ATCC 6919, 1 h, 37 °C

Row | Compound | antibacterial effect of retinoic acid alone on S. aureus ([1]; 0.01-0.1% retinoic acid) | log reduction of bacterial counts at each temperature assayed ([2]; 25 μg/mL, ATCC 6919, 15-40 °C, 1 h, peptide stored four weeks at 4 °C) | bactericidal effect at elevated pH levels (up to 7.6) [2, 6] | bactericidal effect within pH 6-7 [2, 6] | log reduction of C. acnes populations in 50 mM NaCl [2, 6] | log CFU reduction (below LOD) at under 25 mM NaCl / lower salt concentrations ([2]; 25 μg/mL, ATCC 6919, 1 h, 37 °C, LOD 10 CFU/mL) | log reduction of C. acnes CFU counts (below LOD) at 20 °C to 40 °C ([2]; 25 μg/mL, ATCC 6919, 1 h, peptide stored four weeks at 4 °C, LOD 10 CFU/mL, triplicate) | antibacterial activity at high salt concentrations ([2]; 25 μg/mL, ATCC 6919, NaCl, 1 h, 37 °C) | log reduction of CFU counts at ≤50 mM NaCl ([2]; 25 μg/mL, ATCC 6919, buffer supplemented with NaCl, 1 h, 37 °C, triplicate) | log kill of all C. acnes strains tested ([2]; peptide at 5 μg/mL, seven strains, 20 mM Tris, pH 7.2, 1 h, 37 °C) | log CFU reduction of all C. acnes strains (below LOD) ([2]; peptide at 25 μg/mL, 20 mM Tris, pH 7.2, 1 h, 37 °C) | concentration lowering the viability of all C. acnes strains below the LOD ([2]; seven strains, 20 mM Tris, pH 7.2, 1 h, 37 °C, LOD 200 CFU/mL, duplicate) | lowest concentration reducing CFU counts of all S. aureus strains below the LOD ([3]; aerobic, strains 8325, USA300, USA400, LOD 10 CFU/mL) | log kill of all S. aureus strains tested ([3]; peptide at 5 μg/mL) | log CFU reduction of all S. aureus strains (below LOD) ([3]; peptide at 25 μg/mL) | log kill of MRSA strain USA300 grown under anaerobic conditions ([3]; peptide at 25 μg/mL, anaerobic, LOD 10 CFU/mL, triplicate) | log reduction in bacterial CFU in 10 min [4] | log reduction in bacterial CFU within 1 min [4] | log CFU reduction of S. aureus in the presence of 0.01-0.1% retinoic acid ([1]; P156 at 25 μg/mL, LOD 10 CFU/mL) | stability after four weeks of storage at 4 °C [5]
1 | CC1=C(/C=C/C(C)=C/C=C/C(C)=C/C(=O)O)C(C)(C)CCC1 [retinoic acid, all-trans-retinoic acid, reference compound] | no antibacterial effect | – | – | – | – | – | – | – | – | – | – | – | – | – | – | – | – | – | – | –
2 | RRKAKAPRAEIYAQFNKWVYAGGKKLSGLVKRRRR [Peptide P156, variant peptide engineered by adding arginine residues at both the N- and C-terminal ends of the parental peptide PiP01] | – | > 4 logs | able to eradicate C. acnes | complete bacterial eradication | 3 logs | > 4 log CFU | > 5 logs | lack of antibacterial activity | > 3 log CFU | ≥ 3 log | > 4 log CFU | ≥ 5 µg/mL | 5 µg/mL | ≥ 3 log | > 4 log CFU | > 5 log | > 5 log | > 3 log | > 5 log CFU | remains stable and active
